In patent publication US6756359B2, “C12 modified erythromycin macrolides and ketolides having antibacterial activity” (Chiron Corporation, priority 2001, dated 2004):
Converted amounts (≈) assume the structure as drawn.

What was measured:
Experiment in all cases: Antibacterial activity in vitro, MIC by broth microdilution
E. coli Esco_25922 = format: cell-based; conditions: Table 3, Strain ID M: E. coli Esco_25922; unit assumed
Procedure, shortened: (§1)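 Broth microdilution per NCCLS in cation-adjusted Mueller-Hinton broth (S. pneumoniae: plus 2-5% lysed horse blood, 5-10% CO2), inoculum 3×10^5–7×10^5 CFU/mL, 2-fold serial drug dilutions, 35° C. for 18-24 hours. MIC taken as lowest concentration preventing visible growth.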

E. faecalis Enfa_29212 = format: cell-based; conditions: Table 3, Strain ID C: E. faecalis Enfa_29212
Procedure, shortened: as §1

[1] = tested on: S. epidermidis Step_14990; format: cell-based; conditions: Table 3, Strain ID A: S. epidermidis Step_14990; unit assumed
Procedure, shortened: as §1

[2] = tested on: S. epidermidis Step_f50654 Pen S; format: cell-based; conditions: Table 3, Strain ID B: S. epidermidis Step_f50654 Pen S; unit assumed
Procedure, shortened: as §1

S. pyogenes Stpy_8668 = format: cell-based; conditions: Table 3, Strain ID D: S. pyogenes Stpy_8668
Procedure, shortened: as §1

[3] = tested on: S. pneumoniae Stpn_280-962 Pen S; format: cell-based, Streptococcus pneumoniae; conditions: Table 3, Strain ID G: S. pneumoniae Stpn_280-962 Pen S
Procedure, shortened: as §1

[4] = tested on: S. pneumoniae Stpn_297-749 Pen R; format: cell-based, Streptococcus pneumoniae; conditions: Table 3, Strain ID F: S. pneumoniae Stpn_297-749 Pen R
Procedure, shortened: as §1

S. pneumoniae Stpn_49619 = format: cell-based, Streptococcus pneumoniae; conditions: Table 3, Strain ID E: S. pneumoniae Stpn_49619
Procedure, shortened: as §1

[5] = tested on: S. pneumoniae Stpn_Erm 6849; format: cell-based, Streptococcus pneumoniae; conditions: Table 3, Strain ID H: S. pneumoniae Stpn_Erm 6849; unit assumed
Procedure, shortened: as §1

[6] = tested on: S. pneumoniae Stpn_Erm S 4297; format: cell-based, Streptococcus pneumoniae; conditions: Table 3, Strain ID I: S. pneumoniae Stpn_Erm S 4297
Procedure, shortened: as §1

[7] = tested on: S. pneumoniae Stpn_Mef 5654; format: cell-based, Streptococcus pneumoniae; conditions: Table 3, Strain ID J: S. pneumoniae Stpn_Mef 5654; unit assumed
Procedure, shortened: as §1

[8] = tested on: S. pneumoniae Stpn_Mef S 3427; format: cell-based, Streptococcus pneumoniae; conditions: Table 3, Strain ID K: S. pneumoniae Stpn_Mef S 3427
Procedure, shortened: as §1

H. influenzae Hain_49247 = format: cell-based, Haemophilus influenzae; conditions: Table 3, Strain ID L: H. influenzae Hain_49247; unit assumed
Procedure, shortened: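 Visible-growth inhibition defined the MIC, obtained by NCCLS broth microdilution at 35° C. over 18-24 hours with a final inoculum of 3×10^5–7×10^5 CFU/mL.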

Row | Compound | MIC (E. coli Esco_25922) [µg/mL] | MIC (E. faecalis Enfa_29212; unit assumed) [µg/mL] | MIC [1] [µg/mL] | MIC [2] [µg/mL] | MIC (S. pyogenes Stpy_8668; unit assumed) [µg/mL] | MIC [3] | MIC [4] | MIC (S. pneumoniae Stpn_49619) | MIC [5] [µg/mL] | MIC ([6]; unit assumed) [µg/mL] | MIC [7] [µg/mL] | MIC ([8]; unit assumed) [µg/mL] | MIC (H. influenzae Hain_49247) [µg/mL] | MIC (S. pyogenes Stpy_8668) | MIC [8] | MIC (E. faecalis Enfa_29212) | MIC [6] | MIC ([3]; unit assumed) [µg/mL] | MIC ([4]; unit assumed) [µg/mL] | MIC (S. pneumoniae Stpn_49619; unit assumed) [µg/mL]
1 | CC[C@H]1OC(=O)[C@H](C)C(=O)[C@H](C)[C@@H](O[C@@H]2O[C@H](C)C[C@H](N(C)C)[C@H]2O)[C@@](C)(OC)C[C@@H](C)C2=NCCN3C(=O)O[C@H]1[C@H]3[C@H]2C [Compound 6222] | 50 (≈ 80.2 µM) | 0.4 (≈ 0.641 µM) | 1.56 (≈ 2.5 µM) | 1.56 (≈ 2.5 µM) | 0.2 (≈ 0.321 µM) | – | – | – | > 50 | > 50 | 0.78 (≈ 1.25 µM) | 0.4 (≈ 0.641 µM) | 25 (≈ 40.1 µM) | – | – | – | – | 0.2 (≈ 0.321 µM) | 0.4 (≈ 0.641 µM) | 0.2 (≈ 0.321 µM)
2 | CC[C@H]1OC(=O)[C@H](C)C(=O)[C@H](C)[C@@H](O[C@@H]2O[C@H](C)C[C@H](N(C)C)[C@H]2O)[C@@](C)(OC)C[C@@H](C)C2=N[C@@H](C)CN3C(=O)O[C@H]1[C@H]3[C@H]2C [Compound 6223] | 50 (≈ 78.4 µM) | 0.78 (≈ 1.22 µM) | 1.56 (≈ 2.45 µM) | 3.13 (≈ 4.91 µM) | 0.2 (≈ 0.314 µM) | – | – | – | > 50 | > 50 | 0.78 (≈ 1.22 µM) | 0.4 (≈ 0.627 µM) | > 50 | – | – | – | – | 0.2 (≈ 0.314 µM) | 0.2 (≈ 0.314 µM) | 0.2 (≈ 0.314 µM)
3 | CC[C@H]1OC(=O)[C@H](C)C(=O)[C@H](C)[C@@H](O[C@@H]2O[C@H](C)C[C@H](N(C)C)[C@H]2O)[C@@](C)(OC)C[C@@H](C)C(=O)[C@H](C)[C@H]2N(CCCCn3cnc(-c4cccnc4)c3)C(=O)O[C@]12CC [Compound 7280] | 25 (≈ 30.3 µM) | 0.1 (≈ 0.121 µM) | 0.2 (≈ 0.242 µM) | 0.2 (≈ 0.242 µM) | – | ≦0.05 | ≦0.05 | ≦0.05 | 0.4 (≈ 0.484 µM) | – | 0.4 (≈ 0.484 µM) | 0.1 (≈ 0.121 µM) | 6.25 (≈ 7.57 µM) | ≦0.05 | – | – | ≦0.05 | – | – | –
4 | CC[C@H]1OC(=O)[C@H](C)C(=O)[C@H](C)[C@@H](O[C@@H]2O[C@H](C)C[C@H](N(C)C)[C@H]2O)[C@@](C)(OC)C[C@@H](C)C(=O)[C@H](C)[C@H]2N(CCCCn3cnc(-c4ccccc4)c3)C(=O)O[C@]12CC [Compound 7281] | 25 (≈ 30.3 µM) | 0.1 (≈ 0.121 µM) | 0.2 (≈ 0.242 µM) | 0.1 (≈ 0.121 µM) | – | ≦0.05 | ≦0.05 | ≦0.05 | 0.2 (≈ 0.242 µM) | – | 0.4 (≈ 0.485 µM) | – | 3.13 (≈ 3.79 µM) | ≦0.05 | ≦0.05 | – | ≦0.05 | – | – | –
5 | CC[C@H]1OC(=O)[C@H](C)C(=O)[C@H](C)[C@@H](O[C@@H]2O[C@H](C)C[C@H](N(C)C)[C@H]2O)[C@@](C)(OC)C[C@@H](C)C(=O)[C@H](C)[C@H]2N(CCCCn3cnc4ccccc43)C(=O)O[C@]12CC [Compound 7282] | 12.5 (≈ 15.6 µM) | 0.1 (≈ 0.125 µM) | 0.4 (≈ 0.501 µM) | 0.2 (≈ 0.25 µM) | – | ≦0.05 | ≦0.05 | ≦0.05 | 0.78 (≈ 0.976 µM) | 0.2 (≈ 0.25 µM) | 0.4 (≈ 0.501 µM) | 0.1 (≈ 0.125 µM) | 3.13 (≈ 3.92 µM) | ≦0.05 | – | – | – | – | – | –
6 | CC[C@H]1OC(=O)[C@H](C)C(=O)[C@H](C)[C@@H](O[C@@H]2O[C@H](C)C[C@H](N(C)C)[C@H]2O)[C@@](C)(OC)C[C@@H](C)C(=O)[C@H](C)[C@H]2N(CCCCc3ccnc4ccccc34)C(=O)O[C@]12CC [Compound 7283] | 12.5 (≈ 15.4 µM) | 0.1 (≈ 0.123 µM) | 0.2 (≈ 0.247 µM) | 0.2 (≈ 0.247 µM) | – | ≦0.05 | ≦0.05 | ≦0.05 | 0.4 (≈ 0.494 µM) | 0.1 (≈ 0.123 µM) | 0.4 (≈ 0.494 µM) | – | 3.13 (≈ 3.86 µM) | ≦0.05 | ≦0.05 | – | – | – | – | –

Other lines, results leading:

Row | MIC (E. coli Esco_25922) [µg/mL] | MIC (E. faecalis Enfa_29212; unit assumed) [µg/mL] | MIC [1] [µg/mL] | MIC [2] [µg/mL] | MIC (S. pyogenes Stpy_8668; unit assumed) [µg/mL] | MIC [3] | MIC [4] | MIC (S. pneumoniae Stpn_49619) | MIC [5] [µg/mL] | MIC ([6]; unit assumed) [µg/mL] | MIC [7] [µg/mL] | MIC ([8]; unit assumed) [µg/mL] | MIC (H. influenzae Hain_49247) [µg/mL] | MIC (S. pyogenes Stpy_8668) | MIC [8] | MIC (E. faecalis Enfa_29212) | MIC [6] | MIC ([3]; unit assumed) [µg/mL] | MIC ([4]; unit assumed) [µg/mL] | MIC (S. pneumoniae Stpn_49619; unit assumed) [µg/mL] | Compound
7 | > 50 | 0.4 (≈ 0.511 µM) | 6.25 (≈ 7.98 µM) | 6.25 (≈ 7.98 µM) | 0.1 (≈ 0.128 µM) | ≦0.5 | ≦0.5 | ≦0.5 | > 50 | 6.25 (≈ 7.98 µM) | 0.4 (≈ 0.511 µM) | 0.1 (≈ 0.128 µM) | > 50 | – | – | – | – | – | – | – | CC[C@H]1OC(=O)[C@H](C)C(=O)[C@H](C)[C@@H](O[C@@H]2O[C@H](C)C[C@H](N(C)C)[C@H]2O)[C@@](C)(OC)C[C@@H](C)C(=O)[C@H](C)[C@@H]2[C@@H]1OC(=O)N2CCCn1cnc(-c2ccccc2)c1 [Compound 4714]
8 | > 50 | 0.78 (≈ 1.03 µM) | 6.25 (≈ 8.25 µM) | 12.5 (≈ 16.5 µM) | 0.1 (≈ 0.132 µM) | ≦0.5 | ≦0.5 | ≦0.5 | > 50 | 25 (≈ 33 µM) | 0.78 (≈ 1.03 µM) | 0.4 (≈ 0.528 µM) | 25 (≈ 33 µM) | – | – | – | – | – | – | – | CC[C@H]1OC(=O)[C@H](C)C(=O)[C@H](C)[C@@H](O[C@@H]2O[C@H](C)C[C@H](N(C)C)[C@H]2O)[C@@](C)(OC)C[C@@H](C)C(=O)[C@H](C)[C@@H]2[C@@H]1OC(=O)N2CCCn1cnc2cccnc21 [Compound 4716]
9 | > 50 | 0.1 (≈ 0.13 µM) | 0.2 (≈ 0.26 µM) | 0.4 (≈ 0.519 µM) | – | ≦0.5 | ≦0.5 | ≦0.5 | 6.25 (≈ 8.12 µM) | 0.4 (≈ 0.519 µM) | 0.2 (≈ 0.26 µM) | – | 6.25 (≈ 8.12 µM) | ≦0.5 | ≦0.05 | – | – | – | – | – | CC[C@H]1OC(=O)[C@H](C)C(=O)[C@H](C)[C@@H](O[C@@H]2O[C@H](C)C[C@H](N(C)C)[C@H]2O)[C@@](C)(OC)C[C@@H](C)C(=O)[C@H](C)[C@@H]2[C@@H]1OC(=O)N2CCCCn1ccc2ccccc21 [Compound 4717]
10 | 25 (≈ 32 µM) | – | 0.2 (≈ 0.256 µM) | 0.2 (≈ 0.256 µM) | – | ≦0.05 | ≦0.05 | ≦0.05 | 25 (≈ 32 µM) | 0.1 (≈ 0.128 µM) | 0.2 (≈ 0.256 µM) | – | 3.13 (≈ 4 µM) | ≦0.05 | ≦0.05 | ≦0.05 | – | – | – | – | CC[C@H]1OC(=O)[C@H](C)C(=O)[C@H](C)[C@@H](O[C@@H]2O[C@H](C)C[C@H](N(C)C)[C@H]2O)[C@@](C)(OC)C[C@@H](C)C(=O)[C@H](C)[C@@H]2[C@@H]1OC(=O)N2CCCCc1ccc2ccccc2n1 [Compound 5960]
11 | 6.25 (≈ 7.99 µM) | – | 0.1 (≈ 0.128 µM) | 0.1 (≈ 0.128 µM) | – | ≦0.05 | ≦0.05 | ≦0.05 | 3.13 (≈ 4 µM) | 0.1 (≈ 0.128 µM) | 0.4 (≈ 0.512 µM) | – | 1.56 (≈ 1.99 µM) | ≦0.05 | ≦0.5 | ≦0.05 | – | – | – | – | CC[C@H]1OC(=O)[C@H](C)C(=O)[C@H](C)[C@@H](O[C@@H]2O[C@H](C)C[C@H](N(C)C)[C@H]2O)[C@@](C)(OC)C[C@@H](C)C(=O)[C@H](C)[C@@H]2[C@@H]1OC(=O)N2CCCCc1ccnc2ccccc12 [Compound 6220]
12 | 25 (≈ 31.4 µM) | – | 0.1 (≈ 0.125 µM) | 0.1 (≈ 0.125 µM) | – | ≦0.05 | ≦0.05 | ≦0.05 | 0.1 (≈ 0.125 µM) | – | 0.4 (≈ 0.502 µM) | – | 3.13 (≈ 3.93 µM) | ≦0.05 | ≦0.05 | ≦0.05 | ≦0.05 | – | – | – | CC[C@H]1OC(=O)[C@H](C)C(=O)[C@H](C)[C@@H](O[C@@H]2O[C@H](C)C[C@H](N(C)C)[C@H]2O)[C@@](C)(OC)C[C@@H](C)C(=O)[C@H](C)[C@@H]2[C@@H]1OC(=O)N2CCCCn1cnc(-c2ccccc2)c1 [Compound 6221]
